From ChEMBL document CHEMBL4251646, “Improved antibacterial activity of a marine peptide-N2 against intracellular Salmonella typhimurium by conjugating with cell-penetrating peptides-bLFcin6/Tat11” (Eur J Med Chem, 2018)
Converted amounts (≈) assume the structure as drawn. Blank lines part the entries; values can stand above or below the compound they belong to. The source made the active and inactive calls. The rule behind the calls is not given here.

What was measured:
Salmonella typhimurium [1] = experiment: Antibacterial activity against Salmonella typhimurium ATCC 14028 at pH 7 after 16 to 18 hrs by broth microdilution method; type: functional, Salmonella enterica subsp. enterica serovar Typhimurium; conditions: Salmonella enterica
Salmonella typhimurium [2] = experiment: Bactericidal activity against Salmonella typhimurium ATCC 14028 at 1 to 2 times MIC after 2 hrs by time-kill assay; type: functional, organism-based; conditions: Salmonella enterica subsp. enterica serovar Typhimurium
Salmonella typhimurium [3] = experiment: Bactericidal activity against Salmonella typhimurium ATCC 14028 at MIC up to 6 hrs by time-kill assay; type: functional, organism-based; conditions: Salmonella enterica subsp. enterica serovar Typhimurium
Salmonella typhimurium [4] = experiment: Bactericidal activity against Salmonella typhimurium ATCC 14028 at 10 uM up to 9 hrs; type: functional, organism-based; conditions: Salmonella enterica subsp. enterica serovar Typhimurium
Salmonella typhimurium [5] = experiment: Bactericidal activity against Salmonella typhimurium ATCC 14028 at 0.125 to 1 times MIC after 24 hrs by dose-kill assay; type: functional, organism-based; conditions: Salmonella enterica subsp. enterica serovar Typhimurium
Salmonella typhimurium [6] = experiment: Bactericidal activity against Salmonella typhimurium ATCC 14028 infected in mouse RAW264.7 cells assessed as log reduction in intracellular bacterial load at 5 uM after 10 hrs in presence of gentamycin; type: functional, Salmonella enterica subsp. enterica serovar Typhimurium
Salmonella typhimurium [7] = experiment: Bactericidal activity against Salmonella typhimurium ATCC 14028 at 10 uM within 3 to 9 hrs; type: functional, Salmonella enterica subsp. enterica serovar Typhimurium
Salmonella typhimurium [8] = experiment: Bactericidal activity against Salmonella typhimurium ATCC 14028 infected in mouse RAW264.7 cells assessed as log reduction in intracellular bacterial load at 10 uM after 10 hrs in presence of gentamycin; type: functional, Salmonella enterica subsp. enterica serovar Typhimurium
Salmonella typhimurium [9] = experiment: Antibacterial activity against Salmonella typhimurium ATCC 14028 assessed as survival at 10 uM after 3 hrs by broth microdilution method; type: functional, Salmonella enterica subsp. enterica serovar Typhimurium
Salmonella typhimurium [10] = experiment: Bactericidal activity against Salmonella typhimurium ATCC 14028 at 0.03125 to 4 times MIC after 24 hrs by dose-kill assay; type: functional, organism-based; conditions: Salmonella enterica subsp. enterica serovar Typhimurium
Salmonella typhimurium [11] = experiment: Antibacterial activity against Salmonella typhimurium ATCC 14028 at pH 5 after 16 to 18 hrs by broth microdilution method; type: functional, Salmonella enterica subsp. enterica serovar Typhimurium; conditions: Salmonella enterica
[12] = Drug internalization in mouse RAW264.7 cells at 1 uM using FITC-labeled test compound after 0.5 hrs by flow cytometry; type: ADME, cell-based; conditions: raw264.7, 0.5 h
[13] = Drug uptake in mouse RAW264.7 cells at 5 uM using FITC-labeled test compound after 2 hrs by flow cytometry; type: ADME, cell-based; conditions: raw264.7, 2 h
[14] = Cytotoxicity against mouse RAW264.7 cells assessed as cell survival at 100 uM after 8 hrs by MTT assay; type: cell-based; conditions: read-out: Survival
[15] = Drug uptake in mouse RAW264.7 cells at 0.5 uM using FITC-labeled test compound at 4 degC after 2 hrs by flow cytometry; type: ADME, cell-based; conditions: raw264.7, 2 h
[16] = Drug internalization in mouse RAW264.7 cells using FITC-labeled test compound by flow cytometry; type: ADME, cell-based
[17] = Drug uptake in mouse RAW264.7 cells at 2 uM using FITC-labeled test compound at 4 degC after 2 hrs in presence of clathrin-mediated endocytosis inhibitor chlorpromazine by trypan blue staining-based flow cytometry; type: ADME, cell-based; conditions: raw264.7, 2 h
[18] = Drug internalization in mouse RAW264.7 cells at 1 uM using FITC-labeled test compound after 2 hrs by flow cytometry; type: ADME, cell-based; conditions: raw264.7, 2 h
[19] = Drug uptake in mouse RAW264.7 cells at 2 uM using FITC-labeled test compound at 4 degC after 2 hrs in presence of macropinocytosis inhibitor amiloride by trypan blue staining-based flow cytometry; type: ADME, cell-based; conditions: raw264.7, 2 h
[20] = Drug uptake in mouse RAW264.7 cells at 2 uM using FITC-labeled test compound at 4 degC after 2 hrs in presence of lipid raft disruptor MbetaCD by trypan blue staining-based flow cytometry; type: ADME, cell-based; conditions: raw264.7, 2 h
[21] = Drug uptake in cytosol of mouse RAW264.7 cells at 5 uM using FITC-labeled test compound after 5 hrs by Hoechst 33342/FM 4-64 staining-based confocal microscopic analysis; type: ADME, subcellular
[22] = Drug uptake in mouse RAW264.7 cells at 2 uM using FITC-labeled test compound after 2 hrs at 4 degC in presence of microtubule polymerization inhibitor nocodazole by trypan blue staining-based flow cytometry; type: ADME, cell-based; conditions: raw264.7, 2 h
[23] = Drug uptake in mouse RAW264.7 cells at 5 uM using FITC-labeled test compound after 0.5 hrs by flow cytometry; type: ADME, cell-based; conditions: raw264.7, 0.5 h

Compound: N=C(N)NCCC[C@H](NC(=O)[C@H](CCCNC(=N)N)NC(=O)[C@H](CCCNC(=N)N)NC(=O)[C@H](CCC(N)=O)NC(=O)[C@H](CCCNC(=N)N)NC(=O)[C@H](CCCNC(=N)N)NC(=O)[C@H](CCCCN)NC(=O)[C@H](CCCCN)NC(=O)[C@H](CCCNC(=N)N)NC(=O)CNC(=O)[C@@H](N)Cc1ccc(O)cc1)C(=O)O
MIC (Salmonella typhimurium [1]): > 80 µM

Compound: CC(C)[C@@H]1NC(=O)[C@H](C)NC(=O)[C@H](CC(N)=O)NC(=O)[C@H](CCCNC(=N)N)NC(=O)[C@H](Cc2ccc(O)cc2)NC(=O)[C@H](C(C)C)NC(=O)[C@@H]2CSSC[C@@H](NC(=O)[C@H](C(C)C)NC(=O)[C@@H](CCCNC(=N)N)NC1=O)C(=O)N[C@@H](Cc1cnc[nH]1)C(=O)N[C@H](CCCNC(=N)N)C(=O)N[C@@H](CCCNC(=N)N)C(=O)N[C@@H](C(=O)N[C@@H](CC(N)=O)C(=O)O)CSSC[C@H](NC(=O)[C@H](Cc1ccccc1)NC(=O)[C@H](C)NC(=O)[C@H](CCCNC(=N)N)NC(=O)[C@H](CCCNC(=N)N)NC(=O)[C@H](CCCNC(=N)N)NC(=O)[C@H](CCC(N)=O)NC(=O)[C@H](CCCNC(=N)N)NC(=O)[C@H](CCCNC(=N)N)NC(=O)[C@H](CCCCN)NC(=O)[C@H](CCCCN)NC(=O)[C@H](CCCNC(=N)N)NC(=O)CNC(=O)[C@@H](N)Cc1ccc(O)cc1)C(=O)N[C@@H](Cc1c[nH]c3ccccc13)C(=O)N[C@H](CC(N)=O)C(=O)N[C@@H](C(C)C)C(=O)N2
Activity (Salmonella typhimurium [2]): Active | Activity (Salmonella typhimurium [3]): Active | Activity (Salmonella typhimurium [4]): inactive | Activity (Salmonella typhimurium [5]): Active

Compound: CC(C)[C@@H]1NC(=O)[C@H](C)NC(=O)[C@H](CC(N)=O)NC(=O)[C@H](CCCNC(=N)N)NC(=O)[C@H](Cc2ccc(O)cc2)NC(=O)[C@H](C(C)C)NC(=O)[C@@H]2CSSC[C@H](NC(=O)[C@H](C(C)C)NC(=O)[C@H](CCCNC(=N)N)NC1=O)C(=O)N[C@@H](Cc1cnc[nH]1)C(=O)N[C@@H](CCCNC(=N)N)C(=O)N[C@@H](CCCNC(=N)N)C(=O)N[C@@H](C(=O)N[C@@H](CC(N)=O)C(=O)O)CSSC[C@H](NC(=O)[C@H](Cc1ccccc1)NC(=O)[C@H](C)N)C(=O)N[C@@H](Cc1c[nH]c3ccccc13)C(=O)N[C@@H](CC(N)=O)C(=O)N[C@@H](C(C)C)C(=O)N2
Activity (Salmonella typhimurium [4]): inactive | Activity (Salmonella typhimurium [5]): Active

Compound: O=C(O)c1cn(C2CC2)c2cc(N3CCNCC3)c(F)cc2c1=O [CIPROFLOXACIN]
MIC (Salmonella typhimurium [1]): 0.05 µM (≈ 0.0166 µg/mL) | log(activity) (Salmonella typhimurium [6]): 2.67 | Activity (Salmonella typhimurium [7]): 98.11 - 99.99% | log(activity) (Salmonella typhimurium [8]): 3.26 | Survival (Salmonella typhimurium [9]): 5.5 ×10³ CFU/ml | Activity (Salmonella typhimurium [10]): Active

MIC (Salmonella typhimurium [1]): > 80 µM
Compound: H-RRWQWR-OH

Compound: CC(C)[C@@H]1NC(=O)[C@H](C)NC(=O)[C@H](CC(N)=O)NC(=O)[C@H](CCCNC(=N)N)NC(=O)[C@H](Cc2ccc(O)cc2)NC(=O)[C@H](C(C)C)NC(=O)[C@@H]2CSSC[C@H](NC(=O)[C@H](C(C)C)NC(=O)[C@H](CCCNC(=N)N)NC1=O)C(=O)N[C@@H](Cc1cnc[nH]1)C(=O)N[C@@H](CCCNC(=N)N)C(=O)N[C@@H](CCCNC(=N)N)C(=O)N[C@H](C(=O)N[C@@H](CC(N)=O)C(=O)O)CSSC[C@H](NC(=O)[C@H](Cc1ccccc1)NC(=O)[C@H](C)N)C(=O)N[C@@H](Cc1c[nH]c3ccccc13)C(=O)N[C@@H](CC(N)=O)C(=O)N[C@@H](C(C)C)C(=O)N2
MIC (Salmonella typhimurium [1]): 0.78 µM (≈ 2 µg/mL) | MIC (Salmonella typhimurium [11]): 25 µM (≈ 64.2 µg/mL) | Activity (Salmonella typhimurium [7]): 22.41 - 69.74% | Survival (Salmonella typhimurium [9]): 2.3 ×10⁵ CFU/ml

Compound: CC(C)[C@@H]1NC(=O)[C@H](C)NC(=O)[C@H](CC(N)=O)NC(=O)[C@H](CCCNC(=N)N)NC(=O)[C@H](Cc2ccc(O)cc2)NC(=O)[C@H](C(C)C)NC(=O)[C@@H]2CSSC[C@H](NC(=O)[C@H](C(C)C)NC(=O)[C@H](CCCNC(=N)N)NC1=O)C(=O)N[C@@H](Cc1cnc[nH]1)C(=O)N[C@@H](CCCNC(=N)N)C(=O)N[C@@H](CCCNC(=N)N)C(=O)N[C@H](C(=O)N[C@@H](CC(N)=O)C(=O)O)CSSC[C@H](NC(=O)[C@H](Cc1ccccc1)NC(=O)[C@H](C)NC(=O)[C@H](CCCNC(=N)N)NC(=O)[C@H](Cc1c[nH]c3ccccc13)NC(=O)[C@H](CCC(N)=O)NC(=O)[C@H](Cc1c[nH]c3ccccc13)NC(=O)[C@H](CCCNC(=N)N)NC(=O)[C@@H](N)CCCNC(=N)N)C(=O)N[C@@H](Cc1c[nH]c3ccccc13)C(=O)N[C@@H](CC(N)=O)C(=O)N[C@@H](C(C)C)C(=O)N2
Drug uptake [12]: 28.3% | Drug uptake [13]: 96.3% | viability at 8 h, 100 µM [14]: 86.5% | Drug uptake [15]: 17.9% | Drug uptake [16]: Dose-dependent effect and Tde | Drug uptake [17]: Not Active | Drug uptake [18]: 57.2% | Drug uptake [19]: Not Active | Drug uptake [20]: Not Active | Drug uptake [21]: Active | Drug uptake [22]: Not Active | Drug uptake [23]: 70.9%

Compound: CC(C)[C@@H]1NC(=O)[C@H](C)NC(=O)[C@H](CC(N)=O)NC(=O)[C@H](CCCNC(=N)N)NC(=O)[C@H](Cc2ccc(O)cc2)NC(=O)[C@H](C(C)C)NC(=O)[C@@H]2CSSC[C@@H](NC(=O)[C@H](C(C)C)NC(=O)[C@H](CCCNC(=N)N)NC1=O)C(=O)N[C@@H](Cc1cnc[nH]1)C(=O)N[C@@H](CCCNC(=N)N)C(=O)N[C@@H](CCCNC(=N)N)C(=O)N[C@H](C(=O)N[C@@H](CC(N)=O)C(=O)O)CSSC[C@H](NC(=O)[C@H](Cc1ccccc1)NC(=O)[C@H](C)NC(=O)[C@H](CCCNC(=N)N)NC(=O)[C@H](Cc1c[nH]c3ccccc13)NC(=O)[C@H](CCC(N)=O)NC(=O)[C@H](Cc1c[nH]c3ccccc13)NC(=O)[C@H](CCCNC(=N)N)NC(=O)[C@@H](N)CCCNC(=N)N)C(=O)N[C@@H](Cc1c[nH]c3ccccc13)C(=O)N[C@@H](CC(N)=O)C(=O)N[C@@H](C(C)C)C(=O)N2
Activity (Salmonella typhimurium [2]): Active | Activity (Salmonella typhimurium [4]): inactive | Activity (Salmonella typhimurium [5]): Active

Compound: CC(C)[C@@H]1NC(=O)[C@H](C)NC(=O)[C@H](CC(N)=O)NC(=O)[C@H](CCCNC(=N)N)NC(=O)[C@H](Cc2ccc(O)cc2)NC(=O)[C@H](C(C)C)NC(=O)[C@@H]2CSSC[C@H](NC(=O)[C@H](C(C)C)NC(=O)[C@H](CCCNC(=N)N)NC1=O)C(=O)N[C@@H](Cc1cnc[nH]1)C(=O)N[C@@H](CCCNC(=N)N)C(=O)N[C@@H](CCCNC(=N)N)C(=O)N[C@H](C(=O)N[C@@H](CC(N)=O)C(=O)O)CSSC[C@H](NC(=O)[C@H](Cc1ccccc1)NC(=O)[C@H](C)NC(=O)[C@H](CCCNC(=N)N)NC(=O)[C@H](CCCNC(=N)N)NC(=O)[C@H](CCCNC(=N)N)NC(=O)[C@H](CCC(N)=O)NC(=O)[C@H](CCCNC(=N)N)NC(=O)[C@H](CCCNC(=N)N)NC(=O)[C@H](CCCCN)NC(=O)[C@H](CCCCN)NC(=O)[C@H](CCCNC(=N)N)NC(=O)CNC(=O)[C@@H](N)Cc1ccc(O)cc1)C(=O)N[C@@H](Cc1c[nH]c3ccccc13)C(=O)N[C@@H](CC(N)=O)C(=O)N[C@@H](C(C)C)C(=O)N2
Drug uptake [12]: 93.5% | Drug uptake [13]: 99.9% | viability at 8 h, 100 µM [14]: 90.2% | Drug uptake [15]: 8.3% | Drug uptake [16]: Dose-dependent effect and Tde | Drug uptake [17]: Not Active | Drug uptake [18]: 99.8% | Drug uptake [19]: Not Active | Drug uptake [20]: Not Active | Drug uptake [21]: Active | Drug uptake [22]: Not Active | Drug uptake [23]: 99.9%
